Experimental findings from ChEMBL document CHEMBL6103560, “MoA Studies of the TEAD P-Site Binding Ligand MSC-4106 and Its Optimization to TEAD1-Selective Amide M3686” (J Med Chem, 2025) are described below.

Experiment [1] is described as follows: Inhibition of TEAD(unknown origin)/YAP protein-protein interaction transfected in human SK-HEP1 cells incubated for 24 hrs by NanoLuc luciferase reporter assay. It counts as cell-based. A general note: A reporter such as luciferase makes a cellular process visible.
Experiment [2] deals with NCI-H226. In words: Antiproliferative activity against YAP-dependent human NCI-H226 cells incubated for 4 days by CellTiter-Glo 2.0 cell viability assay. The conditions noted are these: NCI-H226, 96 h. Format: functional, cell-based. In general terms: In ATP-based viability assays light output follows the ATP content of the culture.
Experiment [3] concerns NCI-H226. In words: Antiproliferative activity against YAP-dependent human NCI-H226 cells assessed as efficacy incubated for 4 days by CellTiter-Glo 2.0 cell viability assay relative to control. It counts as functional. The conditions noted are these: time 4 day.

The structures appear in SMILES notation.

By IC50 is commonly meant the point on the concentration scale where inhibition reaches its midpoint. Lower therefore signals higher potency. Turning to `Cc1snc2c1c1cc(C(=O)N[C@H](CO)c3ccccn3)ccc1n2-c1ccc(C(F)(F)F)cc1`, the IC50 worked out at 290 nM in experiment [1] and 153 nM with NCI-H226 [2]. In the experiment with NCI-H226 [3], the Efficacy is on record as 112%.
Taken in the same sequence, the figures for `Cn1cc2c3cc(C(N)=O)ccc3n(-c3ccc(C(F)(F)F)cc3)c2n1` were 48 nM, 66 nM and 89%.
Take `Cn1nc2c3cc(C(=O)N[C@@H](CO)c4ccccn4)ccc3n(-c3ccc(C(F)(F)F)cc3)c2n1`: the IC50 in experiment [1] is 50 nM; with NCI-H226 [2], 20 nM. For the same molecule, in the experiment with NCI-H226 [3], the Efficacy was 110%.
Taken in the same sequence, the figures for `CN(C)C(=O)c1ccc2c(c1)c1cn(C)nc1n2-c1ccc(C(F)(F)F)cc1` were 124 nM, 1010 nM and 99%.
Taken in the same sequence, the figures for `Cn1nc2c3cc(C(N)=O)ccc3n(-c3ccc(C(F)(F)F)cc3)c2n1` were 18 nM, 80 nM and 95%.
Taken in the same sequence, the figures for `C[C@@H](CO)NC(=O)c1ccc2c(c1)c1cn(C)nc1n2-c1ccc(C(F)(F)F)cc1` were 146 nM, 42 nM and 97%.
For the molecule `Cn1nc2c3cc(C(=O)NC4CC4)ccc3n(-c3ccc(C(F)(F)F)cc3)c2n1`, the results for the concentration for half-maximal inhibition (IC50) (in experiment [1]; in the experiment with NCI-H226 [2]) were 32 nM and 20 nM, respectively. Further, the Efficacy with NCI-H226 [3] is 89%.
Taken in the same sequence, the figures for `CNC(=O)c1ccc2c(c1)c1cn(C)nc1n2-c1ccc(C(F)(F)F)cc1` were 29 nM, 94 nM and 93%.
Taken in the same sequence, the figures for `Cn1cc2c3cc(C(=O)NCCO)ccc3n(-c3ccc(C(F)(F)F)cc3)c2n1` were 62 nM, 54 nM and 90%.
`Cn1nc2c3cc(C(=O)N4CC[C@@H](O)C4)ccc3n(-c3ccc(C(F)(F)F)cc3)c2n1`: the IC50 in experiment [1] is 56 nM; with NCI-H226 [2], 59 nM. Also, the Efficacy in the experiment on NCI-H226 [3] was found to be 90%.
Taken in the same sequence, the figures for `C[C@@H](CO)NC(=O)c1ccc2c(c1)c1nn(C)nc1n2-c1ccc(C(F)(F)F)cc1` were 39 nM, 35 nM and 93%.
Taken in the same sequence, the figures for `Cn1cc2c3cc(C(=O)NC4CC4)ccc3n(-c3ccc(C(F)(F)F)cc3)c2n1` were 22 nM, 54 nM and 99%.
As for `Cc1snc2c1c1cc(C(=O)N3CC[C@@H](O)C3)ccc1n2-c1ccc(C(F)(F)F)cc1`, the IC50 (in experiment [1]; in the experiment with NCI-H226 [2]) was 133 nM each time. In addition, the Efficacy with NCI-H226 [3] amounted to 105%.
As to `Cn1nc2c3cc(C(=O)N[C@H](CO)c4ccccn4)ccc3n(-c3ccc(C(F)(F)F)cc3)c2n1`, the IC50 in experiment [1] amounted to 156 nM; with NCI-H226 [2] it was 217 nM. Also, the Efficacy with NCI-H226 [3] stood at 102%.
Taken in the same sequence, the figures for `Cc1snc2c1c1cc(C(=O)NC3CC3)ccc1n2-c1ccc(C(F)(F)F)cc1` were 20 nM, 9 nM and 101%.
With `Cn1ccc([C@@H](CO)NC(=O)c2ccc3c(c2)c2nn(C)nc2n3-c2ccc(C(F)(F)F)cc2)n1`, the IC50 in experiment [1] was determined as 120 nM; with NCI-H226 [2] it was 80 nM. Further, the Efficacy in the experiment with NCI-H226 [3] was found to be 103%.
Taken in the same sequence, the figures for `CNC(=O)c1ccc2c(c1)c1c(C)snc1n2-c1ccc(C(F)(F)F)cc1` were 22 nM, 18 nM and 108%.
On to `Cc1snc2c1c1cc(C(=O)NCCO)ccc1n2-c1ccc(C(F)(F)F)cc1`, for which the IC50 came out at 20 nM in experiment [1] and 14 nM with NCI-H226 [2]. For the same molecule, the Efficacy in the experiment on NCI-H226 [3] is 103%.
Taken in the same sequence, the figures for `Cn1ccc([C@@H](CO)NC(=O)c2ccc3c(c2)c2cn(C)nc2n3-c2ccc(C(F)(F)F)cc2)n1` were 61 nM, 57 nM and 106%.
Taken in the same sequence, the figures for `Cc1snc2c1c1cc(C(=O)N3CC[C@H](O)C3)ccc1n2-c1ccc(C(F)(F)F)cc1` were 130 nM, 88 nM and 96%.
In the case of `CCNC(=O)c1ccc2c(c1)c1cn(C)nc1n2-c1ccc(C(F)(F)F)cc1`, the IC50 in experiment [1] was determined as 13 nM; with NCI-H226 [2], 31 nM.
In the case of `Cn1cc2c3cc(C(=O)N[C@H](CO)c4ccccn4)ccc3n(-c3ccc(C(F)(F)F)cc3)c2n1`, the IC50 stood at 573 nM in experiment [1] and 191 nM in the experiment with NCI-H226 [2]. For the same molecule, the Efficacy with NCI-H226 [3] turned out to be 105%.
Taken in the same sequence, the figures for `Cc1snc2c1c1cc(C(=O)N[C@H](C)CO)ccc1n2-c1ccc(C(F)(F)F)cc1` were 20 nM, 14 nM and 104%.
With `C[C@H](CO)NC(=O)c1ccc2c(c1)c1nn(C)nc1n2-c1ccc(C(F)(F)F)cc1`, the IC50 worked out at 27 nM in experiment [1] and 16 nM in the experiment on NCI-H226 [2]. Further, the Efficacy in the experiment on NCI-H226 [3] is on record as 89%.
Taken in the same sequence, the figures for `CNC(=O)c1ccc2c(c1)c1nn(C)nc1n2-c1ccc(C(F)(F)F)cc1` were 18 nM, 38 nM and 98%.
Taken in the same sequence, the figures for `Cc1snc2c1c1cc(C(=O)N[C@@H](C)CO)ccc1n2-c1ccc(C(F)(F)F)cc1` were 60 nM, 16 nM and 102%.
Taken in the same sequence, the figures for `Cn1nc2c3cc(C(=O)NCCO)ccc3n(-c3ccc(C(F)(F)F)cc3)c2n1` were 28 nM, 34 nM and 94%.
As to `Cc1snc2c1c1cc(C(N)=O)ccc1n2-c1ccc(C(F)(F)F)cc1`, the IC50 was determined as 73 nM in experiment [1] and 21 nM with NCI-H226 [2]. Further, in the experiment with NCI-H226 [3], the Efficacy was found to be 99%.
Taken in the same sequence, the figures for `Cn1cc2c3cc(C(=O)N[C@@H](CO)c4ccccn4)ccc3n(-c3ccc(C(F)(F)F)cc3)c2n1` were 16 nM, 15 nM and 99%.
Taken in the same sequence, the figures for `Cn1nc2c3cc(C(=O)O)ccc3n(-c3ccc(C(F)(F)F)cc3)c2n1` were 1 nM, 14 nM and 73%.
Taken in the same sequence, the figures for `Cn1ccc([C@H](CO)NC(=O)c2ccc3c(c2)c2nn(C)nc2n3-c2ccc(C(F)(F)F)cc2)n1` were 40 nM, 19 nM and 98%.
For `C[C@H](CO)NC(=O)c1ccc2c(c1)c1cn(C)nc1n2-c1ccc(C(F)(F)F)cc1`, the figures for the IC50 (in experiment [1]; in the experiment with NCI-H226 [2]) were 31 nM and 19 nM, respectively. Besides, the Efficacy in the experiment with NCI-H226 [3] was 93%.
